Data on 2 molecules can be found in patent US20050020553A1, “Prevention of miscarriage with immunomodulating non-endogenous gestagen compounds” (Solvay Pharmaceuticals GmbH, priority 2001, published 2005).

Data set [1] deals with peripheral blood mononuclear cells (=PBMC). Description: Mitogen-induced stimulation of PBMC from women with unexplained habitual abortion, cytokine levels by ELISA. Conditions: for levels of IL-4 / levels of IL-6 / production of the Th1 cytokine IFN-gamma: PHA-stimulated PBMC from women with unexplained habitual abortion, 96 hours in culture, ELISA. The class given is cell-based, human (women). From the text: The effects of dydrogesterone on Th1 and Th2 cytokine profiles produced by mitogen-stimulated peripheral blood mononuclear cells (=PBMC) were established. The effects of dydrogesterone on Th1 and Th2 cytokine production were investigated in peripheral blood lymphocytes from women with unexplained habitual abortion. The peripheral mononuclear cells were stimulated with mitogen (phytohaemagglutinin) in vitro, in the presence and absence of dydrogesterone. The levels of cytokines secreted were measured after 96 hours in culture. […] Several studies have pointed to a deviation of cytokine profiles in women when during pregnancy. Pregnancy is associated with a shift towards Th2 bias, evinced by changes in peripheral T cells, by cytokine production by peripheral lymphocytes and by cytokine changes at the maternal-fetal interface. Unexplained recurrent spontaneous abortion (URSA) seems to be associated with a stronger bias towards Th1 cytokines. Women who have earlier been gone through URSA may therefore be regarded as a pre-selected group of patients that will typically respond to an immunological stimulation by showing a Th1 dominated pattern of immune response. The pharmacological test was therefore performed with a suitable URSA group which comprised of women admitted with spontaneous abortion for evacuation, (i) who have had at least two previous unexplained miscarriages, (ii) who were currently undergoing at least a 3rd abortion and (iii) who had been fully investigated. The relationship between habitual abortion and cytokine production response in 54 women with normal pregnancy (and at least 3 previous normal pregnancies) and 23 women with a history of habitual abortion of unexplained aetiology (URSA group) has been investigated. Peripheral blood was obtained by venipuncture from the abortion group on the day of abortion. PBMC is separated by Ficoll-paque (Pharmacia Biotech, Sweden) density gradient centrifugation, suspended in RPMI medium (=“Roswell Park Memorial Institute”-medium; obtained from GIBCO/BRL, USA) containing 10% fetal calf serum, aliquoted into 96 well tissue culture plates at a density of 100.000 cells per well and then stimulated with the mitogen phytohemagglutinin (=PHA, Sigma Chemicals, USA) at a concentration of […] for a period of 96 hours, with autologous placental antigens or with trophoblast antigens. Progesterone, dydrogesterone (Duphaston®) and RU486 (=mifepristone) was added in different combinations as described below. Progesterone was tested at concentrations of […]. RU486 was tested at equivalent concentrations. Culture supernatants were harvested at 96 hours for determination of the levels of cytokines secreted by the PBMC into the supernatants. Cytokine levels were determined in the supernatants by enzyme-linked immunosorbent assay (=ELISA). Each sample was tested in the following manner: • PBMC+mitogen • PBMC+mitogen+progesterone • PBMC+mitogen+progesterone+RU486 • PBMC+mitogen+dydrogesterone • PBMC+mitogen+dydrogesterone+RU486 • PBMC+mitogen+Carrier • PBMC+mitogen+Carrier+RU486 Determination of cytokine levels by ELISA: Th1 cytokines TNF-α and IFN-γ, and Th2 cytokines IL-4, IL-6 and IL-10 were evaluated in these samples by ELISA using kits that were obtained from Immunotech SA, France. These consisted of “sandwich ELISA”. Briefly, the first step leads to the capture of the relevant cytokine by monoclonal anti-cytokine antibodies bound to the wells of microtiter plates. In the second step, a second biotinylated monoclonal is added together with streptavidin-enzyme (peroxidase or alkaline phosphatase) conjugate. The biotinylated antibody binds to the solid phase antibody-antigen complex, and in turn, binds the conjugate. After incubation the wells are washed and the binding of the streptavidin-enzyme via biotin is followed by the addition of a chromogenic substrate. The intensity of the coloration produced is proportional to the concentration of the cytokine in the sample. […]
For orientation: In an ELISA, binding on a coated surface is turned into a signal by an enzyme label.

In another data set the test system is pregnant mice. The experiment in a line: Murine stress-induced (ultrasound) abortion model. It counts as in vivo. From the text: The results of the pharmacological test method given above can also be confirmed in an in vivo test model involving pregnant mice. […] Pregnant mice were exposed to ultrasound on day 5 of gestation. This stress increased the abortion rate of these mice from around 12% to 44%. Treatment with dydrogesterone reduced the abortion in a dose-related manner to as low as 5%.

For data set [2] the following is noted: in vivo; cited from earlier work.
In data set [3] the target is T1, human progesterone receptor (Homo sapiens, UniProt P06401).
T1 sequence (P06401 1-933): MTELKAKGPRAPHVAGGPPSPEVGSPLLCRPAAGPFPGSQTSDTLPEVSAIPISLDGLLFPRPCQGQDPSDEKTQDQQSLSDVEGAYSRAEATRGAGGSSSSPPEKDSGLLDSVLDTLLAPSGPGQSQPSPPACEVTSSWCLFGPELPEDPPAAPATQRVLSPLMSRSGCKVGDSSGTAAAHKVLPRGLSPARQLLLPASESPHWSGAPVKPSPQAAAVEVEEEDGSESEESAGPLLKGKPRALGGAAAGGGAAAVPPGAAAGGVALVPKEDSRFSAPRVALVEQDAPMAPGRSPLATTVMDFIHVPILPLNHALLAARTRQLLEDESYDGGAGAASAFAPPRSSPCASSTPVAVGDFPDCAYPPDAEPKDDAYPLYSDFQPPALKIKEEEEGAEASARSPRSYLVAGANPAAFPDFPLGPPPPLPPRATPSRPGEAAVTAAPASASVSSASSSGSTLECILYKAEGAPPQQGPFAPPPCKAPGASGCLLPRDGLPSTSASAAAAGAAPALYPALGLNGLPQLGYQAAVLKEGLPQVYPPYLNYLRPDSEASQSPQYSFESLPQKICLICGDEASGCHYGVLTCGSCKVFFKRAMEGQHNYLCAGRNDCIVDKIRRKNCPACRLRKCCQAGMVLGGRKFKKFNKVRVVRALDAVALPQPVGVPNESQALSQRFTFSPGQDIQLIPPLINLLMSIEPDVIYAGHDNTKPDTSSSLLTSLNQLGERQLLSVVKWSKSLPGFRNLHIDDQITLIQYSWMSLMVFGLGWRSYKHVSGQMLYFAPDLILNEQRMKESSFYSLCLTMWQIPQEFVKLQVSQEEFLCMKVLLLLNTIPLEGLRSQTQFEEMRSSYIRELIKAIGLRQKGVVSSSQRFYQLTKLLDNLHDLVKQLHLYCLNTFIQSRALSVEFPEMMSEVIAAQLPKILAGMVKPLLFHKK
Conditions: cited from earlier work.

In data set [4] the test system is Th1 cytokine production to trophoblast. Conditions: women with recurrent pregnancy loss; Choi et al., Human Reproduction 15/1 (2000); cited from earlier work.
[5] abbreviates: ex-vivo, women with spontaneous abortion and habitual abortion.

In the case of `CC(=O)[C@H]1CC[C@H]2[C@@H]3C=CC4=CC(=O)CC[C@@]4(C)[C@@H]3CC[C@]12C` [dydrogesterone], in data set [1], the “levels of IL-4” value is on record as “marked increase”, the “levels of IL-6” value is “marked increase” and the “production of the Th1 cytokine IFN-gamma” value is reported as “reduction”. In addition, in data set [1] (listed as Dydrogesterone), the “levels of IL-4” value is reported as “increased”, the “levels of IL-6” value is “increased” and the “production of the Th1 cytokine IFN-gamma” value is “strongly suppressed”. For the same molecule, in data set [1] (setting [5]), the Th1/Th2 bias entry is recorded as “shift from a Th1 towards a Th2 bias”, the activity of lymphocytes entry is recorded as “reduced the activity of lymphocytes” and the “release of progesterone induced blocking factor (PIBF)” value is recorded as “increased release”. In addition, the Th1/Th2 cytokine production entry with pregnant mice (murine stress-induced abortion model) is recorded as “shift from Th1 to Th2-cytokine production”. In addition, the “level of IL-4” value with pregnant mice (pregnant mice exposed to ultrasound on day 5 of gestation) is reported as “increased level”. Besides, the abortion rate in the data set with pregnant mice (pregnant mice exposed to ultrasound on day 5 of gestation, stress raised rate from around 12% to 44%, dose-related) is listed as no less than 5%. In addition, in data set [2], the “androgenic effects in the mother (hirsutism, voice changes, acne)” value is reported as “no androgenic effects” and the “masculinizing effect on the female fetus” value was “no masculinizing effect”. Moreover, the “selectivity as progesterone receptor agonist” value in data set [3] is “highly selective progesterone receptor agonist”.

`CC(=O)[C@H]1CC[C@H]2[C@@H]3CCC4=CC(=O)CC[C@]4(C)[C@H]3CC[C@]12C` [progesterone]: in data set [4], the “in-vitro embryotoxic Th1 cytokine production to trophoblast” value was “inhibits”.
